Source: the METLIN SMRT retention time set (Domingo-Almenara et al. 2019)

Assay: gradient 5% acetonitrile 3 min, to 50% in 2 min, to 85% in 15 min, held 3 min, 100 µL/min
Settings: column: Zorbax Extend-C18 2.1 x 50 mm; eluents: water / acetonitrile, 0.1% formic acid
Procedure, shortened: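 Pure standards were run in mixtures of ~100 molecules by HPLC coupled to a quadrupole time-of-flight mass spectrometer. The column was a Zorbax Extend-C18 (2.1 × 50 mm, 1.8 μm) at 100 μL/min, with water and acetonitrile each containing 0.1% formic acid, in positive and negative ionization mode. Dead and dwell volumes were 40 μL and 900 μL. Retention time was taken from computationally picked adduct peaks, each manually inspected, with data collected over 3 months.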

| Structure (SMILES) | RP-LC retention time [s] |
| --- | --- |
| CCOc1nc2ccccc2nc1N1CCCC(C(=O)Nc2ccc(F)c(Cl)c2)C1 (stereo not given) | 797 |
| Cn1c(=O)c(N2CCC(NC(=O)NCc3cccc(F)c3)CC2)nc2ccccc21 | 816 |
| CC1CCN(Cc2csc(N3CCN(C(=O)c4ccc(C#N)cc4)CC3)n2)CC1 | 638 |
| O=S(=O)(c1cnc[nH]1)N1CCC(c2nc(CCOc3ccc(F)cc3)no2)C1 (stereo not given) | 762 |
| O=C(O)c1cn(CCc2ccccc2)nc1S(=O)(=O)N1CCSCC1 | 838 |
| O=C(Nc1ccc(F)c(Cl)c1)N1CCC(n2cnc3ccc(F)cc3c2=O)CC1 | 860 |
| Cc1ccc(NC(=O)c2cnc3c(c2)c(=O)n(C)c(=O)n3-c2ccccc2)cc1F | 956 |
| Cc1nnc2ccc(S(=O)(=O)N(Cc3ccccc3)c3cccc(F)c3)cn12 | 866 |
| Cc1ccc(S(=O)(=O)c2cnc3ccc(F)cc3c2N2CCOCC2)cc1C | 892 |
| COc1ccc(-c2noc(C3CC(=O)N(c4ccc(C)c(C)c4)C3)n2)cc1 (stereo not given) | 1050 |
| O=C(Nc1ccc(N2CCN(C3CCCC3)C2=O)nc1)c1ccccc1F | 804 |
| COc1ccc(-c2nnc3n2CCN(Cc2ccccc2C#N)C3)cc1 | 668 |
| COc1ccc(-c2[nH]ncc2CN2CCC3(CCC3O)CC2)cc1 (stereo not given) | 584 |
| CCOc1ccc(NC(=O)Nc2nccn(-c3ccc(OC)cc3)c2=O)cc1 | 935 |
| COc1ccc(NC(=O)C2CCCN(c3ncnc4c3nc3n4CCCCC3)C2)cc1Cl (stereo not given) | 828 |
| COc1ccc(-c2noc(C3CCCN3C(=O)Nc3ccc4c(c3)OCO4)n2)cc1 (stereo not given) | 884 |
| O=C(O)c1cc(NS(=O)(=O)c2ccccc2C(F)(F)F)cc(C(=O)O)c1 | 660 |
| CCCN1C(=O)COc2ccc(-c3csc(NC(=O)c4ccc(Br)cc4)n3)cc21 | 1160 |
| Cc1cc2c(cc1S(=O)(=O)N1CCCC1C(=O)NCc1ccccc1)OCC(=O)N2 (stereo not given) | 721 |
| O=C1OC(=O)C2C3CCC(O3)C12 (stereo not given) | 559 |
| Cc1cc(C(=O)OCC(=O)c2cccc([N+](=O)[O-])c2)c2ccccc2n1 | 804 |
| COC(=O)c1ccc(Cl)cc1NC(=O)N1CCCn2nc(-c3cccnc3)cc2C1 | 758 |
| CCOC(=O)c1cc(S(=O)(=O)N2CCCC2C(=O)Nc2ccc3c(c2)OCO3)cn1C (stereo not given) | 876 |

| Structure (SMILES) | RP-LC retention time [s] |
| --- | --- |
| O=C1CN(C(=O)c2cccc(C(F)(F)F)c2)c2ccccc2N1 | 732 |
| O=C(NCc1ccc(N2CCCC2)nc1)c1ccc(Cl)s1 | 634 |
| COc1ccc2cccc(NC(=O)c3ccc(F)c(F)c3)c2n1 | 1200 |
| CCOc1ccc(CNC(=O)c2cc(S(=O)(=O)N3CCCC3)c(C)n2C)cc1 | 902 |
| Cc1[nH]c2ccccc2c1C(=O)C(=O)NCc1ccccn1 | 605 |
| CN1CCc2nnc(C3CCN(C(=O)Nc4cc(F)cc(F)c4)C3)n2CC1 (stereo not given) | 593 |
| CCc1ccc(OCc2nc(C)c(C(=O)Nc3nc(-c4ccc(C)cc4)cs3)s2)cc1 | 1420 |
| CC1C(=O)NCCN1C(=O)CCSc1ccc(Cl)cc1 (stereo not given) | 674 |
| CCc1cccc(C)c1NC(=O)C1Cc2cc(S(=O)(=O)N3CCCCC3)ccc2N1C(C)=O (stereo not given) | 900 |
| Cc1occc1C(=O)Nc1nc(-c2ccc3ccccc3c2)cs1 | 1170 |
| O=C(NCC1CCOCC1)c1ccc2[nH]ccc2c1 | 742 |
| CCN(CC)C(=O)C1c2cc(OC)c(OC)cc2C(=O)N(C)C1c1ccc(OC)c(OC)c1 (stereo not given) | 706 |
| Cc1cccc(S(=O)(=O)N2CCC(N3CCN(Cc4ccccc4)C(=O)C3=O)CC2)c1 | 838 |
| Cc1ccc(C(=O)N2C[C@@H]3C[C@H]2C[C@@H]3NS(=O)(=O)c2ccccc2)cn1 | 615 |
| Cc1[nH]c(C(=O)N2CCCC(C(=O)NCc3ccc(N(C)C)cc3)C2)c(C)c1C(=O)OC(C)C (stereo not given) | 681 |
| CC1CN(CC(=O)N2CCN(c3ccccn3)CC2)c2ccccc2S1 (stereo not given) | 683 |
| COc1ccc(Cl)cc1NC(=O)N1CCc2c(c(-c3nnc(-c4ccc(F)cc4)o3)nn2C)C1 | 993 |
| O=C(O)c1cnc(N2CCCCC2)nc1-c1ccccc1 | 956 |
| O=C(NC1CCCC1)C1CCCN(S(=O)(=O)c2c[nH]c(C(=O)N3CCCC3)c2)C1 (stereo not given) | 698 |
| O=C(CSc1nnc(CCc2nc3ccccc3[nH]2)o1)Nc1nccs1 | 556 |
| CN(CC1(C)CCOCC1)C(=O)c1ccc2ccccc2n1 | 727 |
| CCc1onc(C)c1C1CCCN1C(=O)Nc1ccc(C(=O)OC)cc1 (stereo not given) | 806 |
| COc1cccc(CN2CCC3(CC2)C(OC)CN3c2cccc(F)c2)n1 (stereo not given) | 777 |

| Structure (SMILES) | RP-LC retention time [s] |
| --- | --- |
| O=C(Nc1ccccc1C(F)(F)F)N1CCc2nc[nH]c2C1 | 558 |
| Cn1nc(-c2ccc(F)cc2)cc1C(=O)NCc1n[nH]c(=O)c2ccccc12 | 694 |
| Cc1cc(C)n(-c2ccnc(N3CCC(C(=O)NCCc4ccccc4)CC3)n2)n1 | 839 |
| Cn1cc(C(=O)NCc2ccccc2)c(S(=O)(=O)N2CCSCC2)n1 | 834 |
| CNC(=O)C1CCN(C(=O)Nc2ccc(NC(=O)Nc3ccc(C)c(C)c3)cc2)CC1 | 700 |
| Cc1cccc(NC(=O)N2CCC(n3cnc4c(C)cccc4c3=O)CC2)c1 | 836 |
| Cc1cc(N2CCC(NC(=O)Nc3cccc(F)c3)C2=O)ccc1F (stereo not given) | 882 |
| Cc1ccc(-n2ncc3c(NCCN(C)C)ncnc32)cc1C | 648 |
| COc1ccccc1-c1nc(-c2ccc3ncn(C(C)C)c3c2)no1 | 741 |
| O=C(c1cnn(-c2ccccc2)n1)N1CC(c2nc3ccccc3[nH]2)C1 | 578 |
| COc1ccc2[nH]c(=O)c(CCC(=O)NCCCOC(C)C)cc2c1 | 649 |
| Cn1cnc2ccc(-c3noc(-c4cccs4)n3)cc21 | 685 |
| COCCn1c(SCc2c(F)cccc2Cl)nnc1-c1cn(C)nc1OC | 683 |
| CSc1ccc(-c2nc3cnccn3c2Nc2cccc(C)c2C)cc1 | 1060 |
| O=C(NCc1cccnc1)C1CCN(S(=O)(=O)c2cc(-c3noc(C4CCC4)n3)cs2)CC1 | 702 |
| CCCn1c(=O)sc2cc(S(=O)(=O)N3CCC(C(=O)NC4CCC(C)CC4)CC3)ccc21 (stereo not given) | 1030 |
| O=C(Nc1ccc(N2CCN(C3CCCC3)C2=O)nc1)c1ccc(F)c(F)c1 | 916 |
| Cc1c(Cl)cccc1-c1ccc(CNCCc2ccc(S(N)(=O)=O)cc2)o1 | 704 |
| Cc1cc(-c2nnc(-c3ccco3)o2)c(C)n1CC(=O)NCc1ccc(F)cc1Cl | 881 |
| O[C@@H]1CCCC[C@H]1N1CCC(c2ccccc2)CC1 | 661 |
| Cc1c(-c2ccnc(N3CCOCC3)n2)cnc2nc(-c3ccccc3)nn12 | 885 |
| CCOc1cccc(-c2noc(CN3C(=O)COc4cc(C)ccc43)n2)c1 | 1130 |
| CN(C)c1cccc(C(=O)N2CCN(C(=O)c3nnn4c3COC(c3ccccc3)C4)CC2)c1 (stereo not given) | 799 |

| Structure (SMILES) | RP-LC retention time [s] |
| --- | --- |
| O=C(CCc1nc(CSc2nnc(-c3ccccc3)o2)no1)Nc1ccc(F)cc1 | 892 |
| O=C(CSc1nnc2ccc3ccccc3n12)c1ccc(Cl)cc1 | 875 |
| NC(=O)c1nccn1Cc1ccccc1 | 645 |
| O=C(CN1CCC(c2nc(-c3ccccc3)no2)CC1)Nc1ccccc1Br | 795 |
| CC1=NS(=O)(=O)N(Cc2ccccc2)C=C1C(=O)OCc1ccccc1 | 1090 |
| CCOc1ccc(OCC)c(NC(=O)CN2C(=O)C(C)(C)c3ccccc32)c1 | 1090 |
| CONC(=O)Cc1csc(Nc2cc(C)ccn2)n1 | 526 |
| CCCn1cc(CCNC(=O)Nc2ccc(C)cc2C)c2cccnc21 | 781 |
| O=C(C1CC1)N1CCN(c2nc(CN3CCCCCC3)cs2)CC1 | 1100 |
| CCn1nccc1C(=O)Nc1cc(-c2cc3c(OC)cccc3n2CC)[nH]n1 | 879 |
| O=C(Nc1nccs1)c1ccc([N+](=O)[O-])cc1Cl | 722 |
| CCCN(Cc1ccc(OC)c(OC)c1)Cc1cc(=O)n2cccc(C)c2n1 | 620 |
| COc1ccc(-c2nc3cnccn3c2Nc2ccc(C(=O)NC(C)C)cc2)cc1OC | 661 |
| CCc1ccc(C2=C(C)C(N3CCC(C(=O)NCCN4CCCC4)CC3)=NS2(=O)=O)cc1 | 671 |
| COc1ccc(-c2nc3cc(C)ccn3c2NC(=O)COc2ccccc2)cc1 | 694 |
| CCN1c2ccc(Cl)cc2C(=O)NC12CCN(C(=O)NCc1ccccc1)CC2 | 837 |
| Cc1ccc(CNC(=O)C2CCCN(c3nc4c(s3)c(C)nn4-c3ccc(C)cc3)C2)cc1 (stereo not given) | 1210 |
| C[C@H]1CN(C(=O)c2c(F)cccc2F)C[C@@H]1c1nc(-c2ccccc2)no1 | 1020 |
| Cc1ccccc1OCCCC(=O)Nc1nc(-c2ccccc2)cs1 | 1180 |
| COc1cc(OC)c(NC(=O)N2CCc3cn(C)c4cccc(c34)C2)cc1Cl | 887 |
| CN1CCC(N(C)C(=O)CN2C(=O)C(Oc3ccc(F)cc3)C23CCCCC3)CC1 (stereo not given) | 680 |
